Test system: oral cavity cancer cell line SCC-25
Experiment: In vitro survival assay (MTT) for anti-oral cavity cancer effects
Format: cell-based
Conditions: Homo sapiens, SCC-25 cells, 48 hours treatment, absorbance 570 nm, read-out: IC50 (half inhibition concentration), survival of oral cavity cancer cells
Protocol: Inhibiting effects of oral cavity cancer cells by cyclohexenone compounds of Antrodia camphorata from example 1 were assessed according to the anticancer-drug screening model of National Cancer Institute (NCI). The compound 4-hydroxy-2,3-dimethoxy-6-methyl-5-(3,7,11-trimethyl-dodeca-2,6,10-trienyl)-cyclohex-2-enone from example 1 was added into the culture media of oral cavity cancer cell line SCC-25 to determine the survival rates. Survival of cell was analyzed using MTT assay. SCC-25 cell line was a human squamous cell carcinoma cell line.
MTT assay is commonly used to analyze cell proliferation, survival rate of viable cells and cytotoxicity. MTT (3[4,5-dimethylthiazol-2-yl]-2,5-diphenyltetrazolium bromide) is a yellow dye which can be converted to water-insoluble purple formazan on the reductive cleavage of its tetrazolium ring by the succinate tetrazolium reductase in mitochondria of cells. The amount of formazan produced is used to detect the number of viable cells and calculate the survival rates.
The SCC-25 cells were cultivated in DMEM/F12(1:1) medium supplemented with 10% fetal bovine serum and 400 ng/ml of hydrocortisone at 37° C., 5% CO2 for 24 hours. Proliferated cells were washed once with PBS, treated with 1× trypsin-EDTA, and centrifuged at 1200 rpm for 5 min. […] The absorbances were measured at 570 nm with an ELISA Reader to determine the survival rates.

COC1=C(OC)C(O)C(C/C=C(\C)CC/C=C(\C)CCC=C(C)C)C(C)C1=O (stereo not shown) [formula 2, 4-hydroxy-2,3-dimethoxy-6-methyl-5-(3,7,11-trimethyl-dodeca-2,6,10-trienyl)-cyclohex-2-enone]
IC50: 1.05 µg/mL

Reference: US20110059122A1, “Inhibition of the Survival of Oral Cavity Cancer by Cyclohexenone Compounds from Antrodia Camphorata” (GOLDEN BIOTECHNOLOGY CORPORATION, priority 2009, published 2011)
